# Experimental data: publication PMC8537327, “EGFR-Targeted Pentacyclic Triterpene Analogues for Glioma Therapy” (International Journal of Molecular Sciences, 2021)
# Key:
# [1] = system: U251 human glioblastoma cells; test: MTT cytotoxicity assay, U251 cells; format: cell-based; details: for IC50: Homo sapiens, U-251, MTT, 72 h; for anticancer activity against U251 cells: at 100 µM concentration
# Description: (§1) U251, T98G (Japanese Collection of Research Bioresources Cell Bank), and U87 human glioblastoma cell lines were incubated in Dulbecco’s Modified Eagle Medium (DMEM)/Ham’s F12 (Wako Pure Chemical Industries, Osaka, Japan), Eagle’s Minimum Essential Medium (EMEM; Wako Pure Chemical Industries, Osaka, Japan), and DMEM (Gibco/Thermo Fisher Scientific, Waltham, MA, USA) respectively, and supplemented with 10% fetal bovine serum (FBS; Sigma Aldrich, MO, USA). Jurkat human leukemic T-cell line was cultured in Roswell Park Memorial Institute (RPMI) 1640 (Wako Pure Chemical Industries, Osaka, Japan), supplemented with 10% FBS. PBMCs (Precision Bioservices, Frederick, MD, USA) were incubated in RPMI 1640 and supplemented with 10% human serum AB (HS) (Gemini, Woodland, CA, USA). All media were supplemented with 89 μg/mL streptomycin (Meiji Seika Pharma, Tokyo, Japan) at 37 °C in a humid atmosphere and 5% CO2. For each experiment, growing cells were plated at 4 × 10^4 cells/mL and 6 × 10^5 cells/mL into 24-well and 96-well microtiter tissue culture plates (Iwaki brand Asahi Glass Co., Chiba, Japan) respectively and incubated for 72 h before the addition of the drugs (the optimal cell number for cytotoxicity assays was determined in preliminary experiments). The stock solutions of the compounds and cisplatin (Sigma-Aldrich, St. Louis, MO, USA) in concentrations between 0.1–10 mM were prepared in dimethyl sulfoxide (DMSO; Wako Pure Chemical Industries, Osaka, Japan) and in H2O respectively, then were added to fresh culture medium. The concentration of DMSO and H2O in the final culture medium was 1% which had no effect on the cell viability.
# (§2) The MTT (Dojindo Molecular Technologies, Kumamoto, Japan) assay was carried out using the U251, T98G, U87, Jurkat, and PBMC cells to determine the cytotoxicity of compounds 1–13 and cisplatin as previously described in the literature with small modifications. Treated cells were incubated with different concentrations (1–100 µM) of the compounds for 72 h at 37 °C in the CO2 incubator. About 100 µL (1.1 mg/mL) of MTT solution was added to each well and after further incubation for 4 h, formazan crystals formed. At the end of this period, the medium was removed and the formazan crystals were solubilized by the addition of 100 μL DMSO to each well. The absorbance was read on an Infinite M1000 plate reader (Tecan, Mannedorf, Switzerland) at a wavelength of 550 nm with background subtraction at 630 nm. All experiments were performed in triplicate and IC50 values were defined as the drug concentrations that reduced absorbance to 50% of control values.
# [2] = system: T98G human glioblastoma cells; test: MTT cytotoxicity assay, T98G cells; format: cell-based; details: for IC50: Homo sapiens, T98G, MTT, 72 h; for anticancer activity against T98G cells: at 100 µM concentration
# Description: as §1, §2
# [3] = system: U87 human glioblastoma cells; test: MTT cytotoxicity assay, U87 cells; format: cell-based; details: for IC50: Homo sapiens, U-87 MG, MTT, 72 h; for anticancer activity against U87 cells: at 100 µM concentration
# Description: as §1, §2
# [4] = system: K562 CML cell line; set-up: method as in PMID 31574910; details: previously reported by the authors; read-out: IC50, cytotoxic activity against K562 CML cell line; cited from earlier work
# [5] = molecular target: ABL1 kinase; set-up: method as in PMID 31574910; details: previously reported by the authors; read-out: ABL1 kinase inhibition IC50; cited from earlier work
# [6] = system: K562 cells; set-up: method as in PMID 31574910; details: previously reported by the authors; cited from earlier work
# [7] = system: Jurkat human leukemic T-cells; test: MTT cytotoxicity assay, Jurkat cells; format: cell-based
# Description: as §1, §2
# [8] = system: human peripheral blood mononuclear cells (PBMCs); test: MTT cytotoxicity assay, PBMCs; format: cell-based; details: Homo sapiens, PBMC, 72 h
# Description: as §1, §2
# [9] = system: U251 cells; test: Annexin V/ethidium homodimer III staining, apoptotic/necrotic cell detection; format: cell-based, human; details: 24 h; IC50 concentration (Figure 4 legend), 5 μM (method)
# Description: U251 cells (4 × 10^4 cells/well) were seeded in each well of a 24-well plate with compound 10 and cisplatin at 5 μM concentration for 24 h. Then, the apoptotic/necrotic/healthy cells detection kit protocol was applied according to the manufacturer’s instructions (PromoKine, Heidelberg, Germany) with few modifications. Briefly, the cells were washed twice with 1 × binding buffer and then treated with FITC-Annexin V (5 μL), ethidium homodimer III (5 μL), and Hoechst 33342 (5 μL) for 20 min at room temperature in a protected-light environment. After washing in 1 × binding buffer, cells were analyzed under an all-in-one fluorescence microscope Biorevo Fluorescence BZ-9000 (Keyence, Osaka, Japan). Healthy cells, apoptotic cells, late apoptotic or necrotic cells, and necrotic cells were counted as previously described.
# [10] = molecular target: T1, EGFR (Homo sapiens, UniProt P00533); test: Kinase inhibition assay (ADP-Glo), EGFR; format: biochemical
# T1 construct: purchased Promega Corporation
# T1 sequence (P00533 25-1210): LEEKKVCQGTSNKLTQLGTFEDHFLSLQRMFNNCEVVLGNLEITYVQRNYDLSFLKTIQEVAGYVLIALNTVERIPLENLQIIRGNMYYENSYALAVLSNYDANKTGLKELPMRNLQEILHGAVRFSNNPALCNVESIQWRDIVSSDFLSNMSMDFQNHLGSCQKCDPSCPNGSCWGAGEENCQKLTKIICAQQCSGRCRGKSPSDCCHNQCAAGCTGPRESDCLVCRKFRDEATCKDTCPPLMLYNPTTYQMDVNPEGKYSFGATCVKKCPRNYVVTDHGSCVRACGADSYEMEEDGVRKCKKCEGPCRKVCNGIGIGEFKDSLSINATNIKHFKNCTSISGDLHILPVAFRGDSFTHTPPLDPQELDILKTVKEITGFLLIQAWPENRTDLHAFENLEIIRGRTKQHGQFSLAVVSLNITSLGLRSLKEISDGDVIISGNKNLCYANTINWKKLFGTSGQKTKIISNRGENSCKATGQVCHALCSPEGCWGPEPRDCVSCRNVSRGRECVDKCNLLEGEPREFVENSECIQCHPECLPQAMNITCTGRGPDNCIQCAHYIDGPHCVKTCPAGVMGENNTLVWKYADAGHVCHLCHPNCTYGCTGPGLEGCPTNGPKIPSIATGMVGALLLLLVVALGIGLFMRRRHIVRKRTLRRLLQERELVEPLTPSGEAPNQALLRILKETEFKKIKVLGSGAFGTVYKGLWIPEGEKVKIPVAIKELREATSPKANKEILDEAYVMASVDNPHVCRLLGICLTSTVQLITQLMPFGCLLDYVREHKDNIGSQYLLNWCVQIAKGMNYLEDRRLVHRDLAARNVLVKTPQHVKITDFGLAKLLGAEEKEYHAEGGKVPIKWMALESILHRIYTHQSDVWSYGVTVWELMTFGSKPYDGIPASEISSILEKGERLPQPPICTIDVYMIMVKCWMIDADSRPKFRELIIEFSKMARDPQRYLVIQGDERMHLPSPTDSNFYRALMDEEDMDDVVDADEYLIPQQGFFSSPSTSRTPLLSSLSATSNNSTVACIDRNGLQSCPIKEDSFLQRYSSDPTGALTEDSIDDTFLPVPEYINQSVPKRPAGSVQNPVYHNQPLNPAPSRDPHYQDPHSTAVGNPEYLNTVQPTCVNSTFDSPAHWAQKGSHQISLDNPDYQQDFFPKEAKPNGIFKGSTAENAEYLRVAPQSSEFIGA
# Description: (§3) The kinase profiling assay protocol (TK1 and TK-2) was applied according to the manufacturer‘s instructions (Promega Corporation, Madison, WI, USA) with few modifications. In regard to this protocol, the EGFR, HER2, HER4, IGF1R, InsR, KDR, PDGFR-α, PDGFR-β, ABL1, BRK, BTK, CSK, FYN A, LCK, LYN B, and SRC kinase stocks in the kinase strips were diluted with 95 µL 2.5x kinase buffer and their substrate stock in the substrate strip was diluted with 15 µL of 100 µM ATP solutions. Then, the kinase reactions were performed using 2 µL of the kinase working stocks, 2 µL of the ATP/substrate working stocks, and 1 µL of compound solution (0.1–100 µM) or 5% DMSO solution in the 384-well plate. After 4 h of incubation at room temperature, the activity of kinases was detected using ADP-Glo Kinase Assay (Promega Corporation, Madison, WI, USA) according to the manufacturer‘s protocol. Briefly, 5 µL of ADP-Glo reagent was added into each well of 384-well plate and the mixture was incubated at room temperature for 40 min to stop the kinase reaction and deplete any ATP remaining. Then, 10 µL Kinase Detection Reagent was added and the mixture was incubated for a further 30 min to convert the kinase-produced ADP to ATP, and then to light.
# [11] = molecular target: T2, HER4 (Homo sapiens, UniProt Q15303); test: Kinase profiling assay (ADP-Glo), HER4; format: biochemical; details: 30 µM concentration
# T2 construct: purchased Promega Corporation
# Description: as §3, with “light. […]” for “light.”
# [12] = molecular target: T3, IGF1R (Homo sapiens, UniProt P08069); test: Kinase profiling assay (ADP-Glo), IGF1R; format: biochemical; details: 30 µM concentration
# T3 construct: purchased Promega Corporation
# Description: as §3, with “light. […]” for “light.”
# [13] = molecular target: T4, BTK (Homo sapiens, UniProt Q06187); test: Kinase profiling assay (ADP-Glo), BTK; format: biochemical; details: 30 µM concentration
# T4 construct: purchased Promega Corporation
# Description: as §3, with “light. […]” for “light.”
# [14] = molecular target: T5, BRK (Homo sapiens, UniProt Q13882); test: Kinase profiling assay (ADP-Glo), BRK; format: biochemical; details: 30 µM concentration
# T5 construct: purchased Promega Corporation
# T5 sequence (Q13882 whole entry): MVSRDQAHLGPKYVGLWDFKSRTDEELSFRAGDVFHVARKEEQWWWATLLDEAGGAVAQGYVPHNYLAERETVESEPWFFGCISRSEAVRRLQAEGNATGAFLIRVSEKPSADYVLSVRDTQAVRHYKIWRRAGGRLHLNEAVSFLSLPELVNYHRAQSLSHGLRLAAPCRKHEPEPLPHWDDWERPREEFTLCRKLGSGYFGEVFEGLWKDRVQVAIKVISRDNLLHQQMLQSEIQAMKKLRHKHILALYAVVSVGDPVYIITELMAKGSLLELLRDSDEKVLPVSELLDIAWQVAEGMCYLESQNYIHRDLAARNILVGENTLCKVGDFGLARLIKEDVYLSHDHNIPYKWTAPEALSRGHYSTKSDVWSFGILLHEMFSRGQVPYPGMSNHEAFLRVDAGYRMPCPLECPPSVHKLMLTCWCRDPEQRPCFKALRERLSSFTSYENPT
# Description: as §3, with “light. […]” for “light.”
# [15] = molecular target: T6, LYN B (Homo sapiens, UniProt P07948); test: Kinase profiling assay (ADP-Glo), LYN B; format: biochemical; details: 30 µM concentration
# T6 construct: purchased Promega Corporation
# T6 sequence (P07948 1-491 isoform P07948-2): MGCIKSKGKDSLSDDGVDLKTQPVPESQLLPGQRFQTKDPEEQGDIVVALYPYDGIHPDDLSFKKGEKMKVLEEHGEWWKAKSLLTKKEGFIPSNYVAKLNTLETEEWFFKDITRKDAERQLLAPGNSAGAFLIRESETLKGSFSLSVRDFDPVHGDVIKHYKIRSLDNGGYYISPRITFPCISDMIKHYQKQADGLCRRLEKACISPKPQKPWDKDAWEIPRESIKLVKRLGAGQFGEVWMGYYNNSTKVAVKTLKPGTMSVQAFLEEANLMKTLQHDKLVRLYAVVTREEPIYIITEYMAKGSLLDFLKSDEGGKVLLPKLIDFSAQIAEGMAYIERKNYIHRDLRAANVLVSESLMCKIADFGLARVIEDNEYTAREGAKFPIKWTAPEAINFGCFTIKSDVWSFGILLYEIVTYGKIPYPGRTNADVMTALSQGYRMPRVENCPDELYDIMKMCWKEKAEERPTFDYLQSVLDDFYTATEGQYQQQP
# Description: as §3, with “light. […]” for “light.”
# [16] = molecular target: T7, SRC (Homo sapiens, UniProt P12931); test: Kinase profiling assay (ADP-Glo), SRC; format: biochemical; details: 30 µM concentration
# T7 construct: purchased Promega Corporation
# Description: as §3, with “light. […]” for “light.”
# [17] = molecular target: T8, HER2 (Homo sapiens, UniProt P04626); test: Kinase profiling assay (ADP-Glo), HER2; format: biochemical; details: 30 µM concentration
# T8 construct: purchased Promega Corporation
# T8 sequence (P04626 23-1255): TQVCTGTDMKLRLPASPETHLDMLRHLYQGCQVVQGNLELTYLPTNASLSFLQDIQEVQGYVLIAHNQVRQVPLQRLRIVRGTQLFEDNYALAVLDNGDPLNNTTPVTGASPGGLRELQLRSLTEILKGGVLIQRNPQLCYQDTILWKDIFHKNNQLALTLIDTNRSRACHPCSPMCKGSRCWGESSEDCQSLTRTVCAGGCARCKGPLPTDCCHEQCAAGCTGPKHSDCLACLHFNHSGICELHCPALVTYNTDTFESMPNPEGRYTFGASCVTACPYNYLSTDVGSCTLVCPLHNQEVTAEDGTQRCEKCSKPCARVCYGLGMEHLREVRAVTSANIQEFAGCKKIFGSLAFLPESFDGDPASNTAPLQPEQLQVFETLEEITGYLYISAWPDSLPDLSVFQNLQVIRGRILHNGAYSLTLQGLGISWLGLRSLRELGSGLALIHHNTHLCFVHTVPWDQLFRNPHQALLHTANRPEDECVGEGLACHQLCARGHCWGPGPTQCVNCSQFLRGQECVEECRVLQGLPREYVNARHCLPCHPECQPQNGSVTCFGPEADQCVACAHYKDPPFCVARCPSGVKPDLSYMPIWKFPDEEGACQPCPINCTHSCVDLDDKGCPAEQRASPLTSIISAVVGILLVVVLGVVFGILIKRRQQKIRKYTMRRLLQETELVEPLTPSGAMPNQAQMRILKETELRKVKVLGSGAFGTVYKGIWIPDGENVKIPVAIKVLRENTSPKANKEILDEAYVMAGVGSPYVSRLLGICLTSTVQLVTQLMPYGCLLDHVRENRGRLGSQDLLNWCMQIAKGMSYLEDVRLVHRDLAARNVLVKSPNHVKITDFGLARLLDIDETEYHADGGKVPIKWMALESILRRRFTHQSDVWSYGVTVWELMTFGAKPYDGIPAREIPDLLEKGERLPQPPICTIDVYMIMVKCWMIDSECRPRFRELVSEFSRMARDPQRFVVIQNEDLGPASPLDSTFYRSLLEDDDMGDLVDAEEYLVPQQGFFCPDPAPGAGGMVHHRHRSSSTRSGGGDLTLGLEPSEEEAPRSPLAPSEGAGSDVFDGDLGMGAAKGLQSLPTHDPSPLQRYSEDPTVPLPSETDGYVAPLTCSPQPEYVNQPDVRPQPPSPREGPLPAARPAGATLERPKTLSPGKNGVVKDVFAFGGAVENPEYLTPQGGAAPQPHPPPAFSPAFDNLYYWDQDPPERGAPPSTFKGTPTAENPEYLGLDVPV
# Description: as §3, with “light. […]” for “light.”
# [18] = molecular target: T9, ABL1 (Homo sapiens, UniProt P00519); test: Kinase profiling assay (ADP-Glo), ABL1; format: biochemical; details: 30 µM concentration
# T9 construct: purchased Promega Corporation
# T9 sequence (P00519 whole entry): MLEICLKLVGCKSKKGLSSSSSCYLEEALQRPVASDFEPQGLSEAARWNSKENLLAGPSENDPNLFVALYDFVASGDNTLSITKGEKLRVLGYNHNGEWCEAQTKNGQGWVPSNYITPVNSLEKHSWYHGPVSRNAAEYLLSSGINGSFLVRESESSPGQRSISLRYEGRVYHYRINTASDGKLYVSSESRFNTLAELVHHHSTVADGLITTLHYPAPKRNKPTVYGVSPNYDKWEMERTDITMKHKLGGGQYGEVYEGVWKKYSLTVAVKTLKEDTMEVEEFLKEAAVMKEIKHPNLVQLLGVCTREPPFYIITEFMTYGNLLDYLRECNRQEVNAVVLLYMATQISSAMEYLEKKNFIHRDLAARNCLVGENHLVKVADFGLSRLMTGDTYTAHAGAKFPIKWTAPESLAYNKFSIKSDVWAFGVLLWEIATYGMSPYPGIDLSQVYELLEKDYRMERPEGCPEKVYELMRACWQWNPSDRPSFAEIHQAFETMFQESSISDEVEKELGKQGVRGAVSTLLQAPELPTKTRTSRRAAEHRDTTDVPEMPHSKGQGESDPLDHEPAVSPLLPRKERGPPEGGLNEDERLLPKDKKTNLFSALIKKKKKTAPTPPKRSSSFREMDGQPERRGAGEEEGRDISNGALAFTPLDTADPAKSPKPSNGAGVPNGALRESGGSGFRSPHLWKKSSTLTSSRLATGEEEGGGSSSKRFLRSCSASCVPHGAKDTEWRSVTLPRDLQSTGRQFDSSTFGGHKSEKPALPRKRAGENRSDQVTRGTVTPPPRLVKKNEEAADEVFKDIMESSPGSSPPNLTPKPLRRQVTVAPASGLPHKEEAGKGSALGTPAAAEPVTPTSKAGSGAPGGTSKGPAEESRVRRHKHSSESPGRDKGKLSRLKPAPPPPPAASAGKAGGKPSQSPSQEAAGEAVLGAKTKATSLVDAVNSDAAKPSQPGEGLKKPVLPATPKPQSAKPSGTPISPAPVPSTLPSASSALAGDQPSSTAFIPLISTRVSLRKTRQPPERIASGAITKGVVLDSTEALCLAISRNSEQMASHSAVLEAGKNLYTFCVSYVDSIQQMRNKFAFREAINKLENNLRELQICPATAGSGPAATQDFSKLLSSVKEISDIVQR
# Description: as §3, with “light. […]” for “light.”
# [19] = molecular target: T10, FYN A (Homo sapiens, UniProt P06241); test: Kinase profiling assay (ADP-Glo), FYN A; format: biochemical; details: 30 µM concentration
# T10 construct: purchased Promega Corporation
# T10 sequence (P06241 whole entry): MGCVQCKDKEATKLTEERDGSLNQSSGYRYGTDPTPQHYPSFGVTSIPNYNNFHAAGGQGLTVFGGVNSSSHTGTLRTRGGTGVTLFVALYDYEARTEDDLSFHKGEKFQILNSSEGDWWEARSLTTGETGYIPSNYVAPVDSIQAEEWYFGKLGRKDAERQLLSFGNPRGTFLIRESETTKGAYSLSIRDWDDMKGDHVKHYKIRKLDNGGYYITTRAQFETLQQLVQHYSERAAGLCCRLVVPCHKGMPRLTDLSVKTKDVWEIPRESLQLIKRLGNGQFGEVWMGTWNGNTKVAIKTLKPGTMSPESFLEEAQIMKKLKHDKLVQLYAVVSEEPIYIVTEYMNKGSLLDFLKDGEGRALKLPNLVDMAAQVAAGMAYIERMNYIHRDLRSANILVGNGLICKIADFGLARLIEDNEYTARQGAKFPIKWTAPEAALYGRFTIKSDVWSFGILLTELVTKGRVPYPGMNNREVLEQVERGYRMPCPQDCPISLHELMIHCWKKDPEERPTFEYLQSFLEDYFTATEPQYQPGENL
# Description: as §3, with “light. […]” for “light.”
structure (smiles),measurement,setting,value
CC1(C)CC[C@]2(C(=O)OCc3ccccc3)CC[C@]3(C)C(=CC[C@@H]4[C@@]5(C)CC[C@H](O)C(C)(C)[C@@H]5CC[C@]43C)[C@@H]2C1 [Compound 5],IC50,[1],> 100 µM
same,anticancer activity against U251 cells,[1],no significant anticancer activity
same,IC50,[2],> 100 µM
same,anticancer activity against T98G cells,[2],no significant anticancer activity
same,IC50,[3],> 100 µM
same,anticancer activity against U87 cells,[3],no significant anticancer activity
same,IC50,[4],5.46 µM
same,IC50,[5],1.44 µM
CC1(C)CC[C@]2(C(=O)OCc3cc(C(F)(F)F)cc(C(F)(F)F)c3)CC[C@]3(C)C(=CC[C@@H]4[C@@]5(C)CC[C@H](O)[C@@](C)(C=O)[C@@H]5CC[C@]43C)[C@@H]2C1 [Compound 8],IC50,[1],> 100 µM
same,anticancer activity against U251 cells,[1],no significant anticancer activity
same,IC50,[2],> 100 µM
same,anticancer activity against T98G cells,[2],no significant anticancer activity
same,IC50,[3],> 100 µM
same,anticancer activity against U87 cells,[3],no significant anticancer activity
same,IC50,[4],4.78 µM
same,apoptosis in K562 cells,[6],24%
"C[C@@H](NCC1(C)C(O)CCC2(C)C1CCC1(C)C2CC=C2C3CC(C)(C)CCC3(C(=O)O)CCC21C)c1ccccc1 (stereo partly drawn) [Compound 10, 10-Hydroxy-2,2,6a,6b,9,12a-hexamethyl-9-[(((R)-1-phenylethyl)amino)methyl]-1,2,3,4,4a,5,6,6a,6b,7,8,8a,9,10,11,12,12a,12b,13,14b-icosahydropicene-4a-carboxylic acid]",IC50,[1],5.82 ± 1.66 µM
same,IC50,[2],8.19 ± 2.42 µM
same,IC50,[3],17 ± 4.92 µM
same,IC50,"[7]; Homo sapiens, Jurkat, MTT, 72 h",3.56 ± 1.45 µM
same,SI (selectivity index),[7]; SI = IC50 for PBMCs/IC50 for Jurkat cells,7.90
same,IC50,[8],28.1 ± 5.05 µM
same,apoptosis in U251 cells,[9],10.29%
same,EGFR inhibition relative to InsR inhibition,"[10]; 30 µM concentration, stronger inhibition of EGFR than InsR",approximately 2 fold
same,IC50,[10]; ADP-Glo kinase assay,9.43 µM
same,HER4 inhibition,[11],no significant inhibition
same,IGF1R inhibition,[12],no significant inhibition
same,BTK inhibition,[13],no significant inhibition
same,BRK inhibition,[14],no significant inhibition
same,LYN B inhibition,[15],no significant inhibition
same,SRC inhibition,[16],no significant inhibition
same,HER2 inhibition,[17],moderate
same,ABL1 inhibition,[18],moderate
same,FYN A inhibition,[19],moderate
same,melting point,,240 to 243 °C
